Measurements: patent US20230172204A1 (BASF SE, priority 2020, published 2023)

Key:
[1] = system: Phakopsora pachyrhizi (F129L); test: Protective control of soybean rust on soybeans (PHAKPA P2); format: in vivo; conditions: for % PHAKPA (F129L) Disease level P2 at 4 ppm: protective P2, 4 ppm; for % PHAKPA (F129L) Disease level P2 at 4 ppm / % PHAKPA (F129L) Disease level P2 at 16 ppm: soybean rust F129L; for % PHAKPA (F129L) Disease level P2 at 16 ppm: protective P2, 16 ppm
[2] = system: Phakopsora pachyrhizi (F129L); test: Protective control of soybean rust on soybeans (PHAKPA P6); format: in vivo; conditions: for % PHAKPA (F129L) Disease level P6 at 4 ppm: protective P6, 4 ppm; for % PHAKPA (F129L) Disease level P6 at 4 ppm / % PHAKPA (F129L) Disease level P6 at 16 ppm: soybean rust F129L; for % PHAKPA (F129L) Disease level P6 at 16 ppm: protective P6, 16 ppm
[3] = P2 protective, % diseased leaf area
[4] = P6 protective, % diseased leaf area

Structure (SMILES) | % PHAKPA (F129L) Disease level P2 at 4 ppm [1] | % PHAKPA (F129L) Disease level P2 at 16 ppm [1] | % PHAKPA (F129L) Disease level P6 at 4 ppm [2] | % PHAKPA (F129L) Disease level P6 at 16 ppm [2] | PHAKPA (F129L) Disease level (%) P2 at 4 ppm ([1]; P2 protective, 4 ppm, % diseased leaf area) | PHAKPA (F129L) Disease level (%) P6 at 4 ppm ([2]; P6 protective, 4 ppm, % diseased leaf area) | PHAKPA (F129L) Disease level (%) P2 at 16 ppm [1, 3] | PHAKPA (F129L) Disease level (%) P6 at 16 ppm [2, 4]
CO/N=C(/C(=O)OC)c1cccc(C)c1CO/N=C(\C)c1cc(F)c(F)cc1C(F)(F)F [compound 409] | 77% | 40% | 83% | 73% | – | – | – | –
CO/N=C(/C(=O)OC)c1cccc(C)c1CO/N=C(\CC1CC1)c1cccc(C(F)(F)F)c1 [compound 215] | 87% | 37% | 87% | 33% | – | – | – | –
CNC(=O)/C(=N/OC)c1cccc(C)c1CO/N=C(\C)c1c(F)cc(Br)cc1C(F)(F)F [compound 358] | 77% | 17% | 83% | 18% | – | – | – | –
CO/C=C(/C(=O)OC)c1cccc(C)c1CO/N=C(\C)c1cc(F)c(F)cc1CC(F)(F)F [compound 405] | 97% | 27% | 70% | 27% | – | – | – | –
CNC(=O)/C(=N/OC)c1cccc(C)c1CO/N=C(\C)c1c(F)cccc1C(F)(F)F [compound 345] | 22% | 1% | 32% | 1% | – | – | – | –
CNC(=O)/C(=N/OC)c1cccc(C)c1CO/N=C(\C)c1ccc(/C(C)=N\OC)cc1OC(F)(F)F [compound 415] | 47% | 5% | 67% | 11% | – | – | – | –
COC/C(=N\OCc1c(C)cccc1/C(=N\OC)C(=O)OC)c1cccc(C(F)(F)F)c1 [compound 191] | 77% | 2% | 83% | 22% | – | – | – | –
CNC(=O)/C(=N/OC)c1ccccc1CO/N=C(/c1ccccc1)C(F)F [reference compound] | – | – | – | – | 43% | 90% | – | –
CNC(=O)/C(=N/OC)c1cccc(C)c1CO/N=C(\C)c1cc(C(F)(F)F)ccc1Cl [compound 190] | 20% | 0% | 45% | 3% | – | – | – | –
CO/N=C(/C(=O)OC)c1cccc(C)c1CO/N=C(\C)c1ccc(OC)cc1OC(F)(F)F [compound 373] | 77% | 27% | 100% | 38% | – | – | – | –
COC=C(C(=O)OC)c1cccc(C)c1CON=C(C)c1ccc(Cl)c(F)c1OC(F)(F)F [compound 452] | 60% | 6% | 70% | 14% | – | – | – | –
CO/N=C(/C(=O)OC)c1cccc(C)c1CO/N=C(\C)c1ccc(OC)cc1 [Ex. 216] | 77% | 13% | 80% | 29% | – | – | 20% | 15%
CNC(=O)/C(=N/OC)c1cccc(C)c1CO/N=C(\C)c1c(F)cccc1OC(F)(F)F [compound 325] | 24% | 4% | 22% | 1% | – | – | – | –
CNC(=O)/C(=N/OC)c1cccc(C)c1CO/N=C(\C)c1cc(C)cc(C)c1 [compound 99] | 43% | 12% | 87% | 33% | – | – | – | –
CNC(=O)/C(=N/OC)c1cccc(C)c1CO/N=C(\COC)c1cccc(C(F)(F)F)c1 [compound 186] | 1% | 0% | 2% | 0% | – | – | – | –
CO/N=C(/C(=O)OC)c1cccc(C)c1CO/N=C(\C)c1ccccc1C(F)(F)F [Ex. 36] | 100% | 42% | 100% | 43% | – | – | 47% | 57%
CO/N=C(/C(=O)OC)c1cccc(C)c1CO/N=C(\C)c1ccc(Cl)c(C(F)(F)F)c1 [compound 59] | 67% | 20% | 63% | 11% | – | – | – | –
CNC(=O)/C(=N/OC)c1cccc(C)c1CO/N=C(/c1cccc(C(F)(F)F)c1)C(C)C [compound 207] | 40% | 11% | 83% | 5% | – | – | – | –
CNC(=O)/C(=N/OC)c1cccc(C)c1CO/N=C(\C)c1ccc(C)cc1C(F)(F)F [compound 327] | 23% | 3% | 48% | 4% | – | – | – | –
CNC(=O)/C(=N/OC)c1cccc(C)c1CO/N=C(\C)c1ccc(Br)cc1 [compound 168] | 2% | 0% | 5% | 0% | – | – | – | –
CO/C=C(/C(=O)OC)c1cccc(C)c1CO/N=C(\C)c1ccc(F)c(F)c1OC(F)(F)F [compound 450] | 3% | 1% | 4% | 1% | – | – | – | –
CNC(=O)/C(=N/OC)c1cccc(C)c1CO/N=C(/c1ccccc1)C(F)(F)F [compound 458] | 93% | 57% | 83% | 50% | – | – | – | –
CNC(=O)/C(=N/OC)c1cccc(C)c1CO/N=C(\C)c1ccc(Cl)c(Cl)c1C(F)(F)F [compound 431] | 32% | 7% | 40% | 12% | – | – | – | –
C=Cc1cccc(/C(=N\OC)C(=O)NC)c1CO/N=C(\C)c1ccccc1 [compound 400] | 2% | 0% | 8% | 0% | – | – | – | –
CNC(=O)/C(=N/OC)c1cccc(C)c1CO/N=C(\C)c1ccccc1C1CC1 [compound 219] | 60% | 8% | 87% | 43% | – | – | – | –
CO/N=C(/C(=O)OC)c1cccc(C)c1CO/N=C(\C)c1cccc(F)c1 [Ex. 86] | 12% | 3% | 23% | 3% | – | – | 6% | 7%
CO/N=C(/C(=O)OC)c1cccc(C)c1CO/N=C(\C)c1ccc(OC(F)(F)F)cc1Cl [compound 268] | 63% | 6% | 60% | 17% | – | – | – | –
CNC(=O)/C(=N/OC)c1cccc(C)c1CO/N=C(\C)c1ccc(C#N)c(C(F)(F)F)c1 [compound 17] | 70% | 50% | 63% | 57% | – | – | – | –
CO/N=C(/C(=O)OC)c1cccc(C)c1CO/N=C(\C)c1ccc(Br)cc1C(F)(F)F [compound 257] | 93% | 35% | 100% | 57% | – | – | – | –
